{"source": "patent US20230144898A1", "about": "“INHIBITOR OF ASPARTIC ACID SYNTHESIS IN TUMOR CELLS, INHIBITOR OF SPHEROID FORMATION OF TUMOR CELLS, INHIBITOR OF TUMOR CELL METASTASIS, ACTIVITY ENHANCER OF GLYCOLYTIC INHIBITOR, AND PHARMACEUTICAL COMPOSITION FOR SUPPRESSING AND/OR PREVENTING TUMOR METASTASIS” (CCI HOLDINGS INC., priority 2020, published 2023)", "key": {"B16F10 cells": {"tested_on": "B16F10 cells", "experiment": "Influence on anticancer action of 2-DG, cell viability (Test Example 3)", "type": "cell-based, mouse", "details": "2-DG 3 mM to 3 nM, negative control section (DMSO), 36 hours", "method": "Specifically, to start with, B16F10 cells were seeded in a six-well plate in an amount of 0.5×10^5 cells/mL. Next, after 24 hours starting from seeding, 2-DG (concentration changed from 3 mM to 3 nM) was added and simultaneously treated with neopetasin at a concentration of 0.3 µM or 3 µM. Then, after 36 hours starting from this treatment, the cell viability was measured through the same method as in Test Example 1. Moreover, as a negative control section, DMSO was administered to perform the same experiment."}, "colon cancer cell lines": {"tested_on": "colon cancer cell lines", "details": "cited from earlier work"}, "[1]": {"tested_on": "CMeCl cells (canine malignant melanoma cells)", "experiment": "Proliferation inhibition, CMeC1 cells, trypan blue viable cell count (Test Example 1)", "type": "cell-based", "details": "Cell line: CMeC1, incubated for 72 hours; for pIC50: read-out: IC50", "method": "Four compounds of petasin, S-petasin, neopetasin and neo-S-petasin were evaluated for the inhibitory effect on proliferation of mouse or canine malignant melanoma cells by the following method.\nB16F10 cells (mouse malignant melanoma cells) were obtained from JCRB Cell Bank (National Institutes of Biomedical Innovation, Health and Nutrition). In addition, CMeCl cells (canine malignant melanoma cells) were obtained from Veterinary Surgery Laboratory, Graduate School of Agricultural and Life Sciences, the University of Tokyo. Furthermore, A2058 cells (human malignant melanoma cells) were obtained from JCRB Cell Bank (National Institutes of Biomedical Innovation, Health and Nutrition). B16F10 cells were cultured in a 37° C. incubator (air/CO2 = 95/5 (v/v)) using Dulbecco’s modified Eagle’s medium (DMEM), CMeCl cells in RPMI (Roswell Park Memorial Institute) medium (RPMI1640), and A2058 cells in E-MEM medium.\nFirst, CMeCl cells (canine malignant melanoma cells) were seeded in a six-well plate so as to be 0.5×10^5 cells/mL, and after 24 hours therefrom, each of the above four kinds of compounds (final concentration: 0.01 to 100 µg/mL) was suspended in the medium at a ratio of 0.1% and incubated for 72 hours. 72 hours after the start of culture, the number of viable cells was measured by trypan blue staining. At this time, viable cells (cell viability%) were calculated as the relative number of cells when the number of viable cells in a negative control section (DMSO treatment) was taken as 100%. Then, IC50 was calculated using a GraphPad Prism software system (GraphPad Software Inc.)."}, "[2]": {"tested_on": "B16F10 cells (mouse malignant melanoma cells)", "details": "cited from earlier work"}, "[3]": {"tested_on": "mitochondria in B16F10 cells", "experiment": "Electron microscope observation of treated cells (Test Example 8)", "type": "cell-based, mouse", "details": "neopetasin 3 µM, metformin 5000 µM", "method": "Following the above results, the cells respectively treated with neopetasin (3 µM) and metformin (5000 µM) in the above were observed using an electron microscope. Furthermore, DMSO was administered to the negative control section, and the same experiment was performed."}, "[4]": {"tested_on": "mitochondria in B16F10 cells", "experiment": "MitoTracker Orange staining of mitochondria (Test Example 8)", "type": "cell-based, mouse", "details": "neopetasin 3 µM, metformin 5000 µM; 48 hours", "method": "In order to determine the action mechanism of neopetasin on inhibiting the aspartic acid synthesis in tumor cells, the influence of neopetasin on mitochondria in B16F10 cells was evaluated. Specifically, B16F10 cells treated with neopetasin (3 µM) for 48 hours through the same method as in Test Example 1 were stained using MitoTracker Orange (Thermo Fisher Scientific, MA, USA), which labels mitochondria depending on membrane potential. In addition, as a positive control section, in place of neopetasin, metformin known as a mitochondrial respiratory chain Complex I inhibitor (mitochondrial toxin) was used at a concentration of 5000 µM to perform the same experiment. Subsequently, the cells stained as described above were photographed with a fluorescence microscope (FIG. 9A). In addition, the relationship between fluorescence intensity of the cells and the distribution of the number of cells was measured using an image cytometer (Tali, Thermo Fisher Scientific, MA, USA) (FIG. 9B)."}}, "note": "pIC50: −log10 of the molar value. Where two headings read alike, the source gives them in different places."}
{"molecule": "O=CC[C@@H](O)[C@H](O)[C@H](O)CO", "note": "[2-DG, 2-deoxy-D-glucose, reference compound]", "values": [{"measurement": "cell viability", "setting": "B16F10 cells", "value": "reduced in a concentration-dependent manner"}]}
{"molecule": "C=C(C)[C@@H]1C[C@@]2(C)C(=CC1=O)CC[C@@H](OC(=O)/C(C)=C\\C)[C@@H]2C", "note": "[Petasin, petasin]", "values": [{"measurement": "migration and invasion of colon cancer cell lines", "setting": "colon cancer cell lines", "value": "suppressed migration and invasion"}, {"measurement": "proliferation of colon cancer cell lines", "setting": "colon cancer cell lines", "value": "inhibited proliferation"}, {"measurement": "pIC50", "setting": "[1]; Canis lupus familiaris, 72 h", "value": 5.55}]}
{"molecule": "C=C(C)[C@@H]1C[C@@]2(C)C(=CC1=O)CC[C@@H](OC(=O)/C=C\\SC)[C@@H]2C", "note": "[S-petasin, reference compound]", "values": [{"measurement": "IC50 (µg/mL)", "setting": "[1]", "value": 0.755, "unit": "µg/mL"}, {"measurement": "pIC50", "setting": "[1]", "value": 5.65}]}
{"molecule": "N.N.[Cl][Pt][Cl]", "note": "[cisplatin]", "values": [{"measurement": "IC50 for B16F10 cells (classical anticancer agent)", "setting": "[2]", "value": 5, "unit": "µg/mL"}]}
{"molecule": "CN(C)C(=N)N=C(N)N", "note": "[metformin, reference compound]", "values": [{"measurement": "influence on mitochondria (electron microscope)", "setting": "[3]", "value": "the influence on mitochondria was mild"}, {"measurement": "MitoTracker Orange fluorescence intensity", "setting": "[4]", "value": "enhanced fluorescence intensity"}]}
{"molecule": "neo-S-petasin [reference compound]", "values": [{"measurement": "IC50 (µg/mL)", "setting": "[1]", "value": 0.537, "unit": "µg/mL"}, {"measurement": "pIC50", "setting": "[1]", "value": 5.79}]}
